Like-named read-outs stand apart in the source and are kept apart here.
Key:
[1] = test system: human LOX-IMVI melanoma cell xenografts; experiment: Assessment of survival (increased life span) in mice with human LOX-IMVI melanoma xenografts; type: in vivo; details: monotherapy; for 50% Treatment Days (median survival day of treated group): 50% vehicle days 14; for % ILS (increased life span): versus vehicle group
Experimental: (§1) Mice were implanted with human LOX-IMVI melanoma cell xenografts. The mice, cell line used, and implantation are described below.
(§2) Female athymic Crl:NU-Foxn1nu mice were used for efficacy testing (Charles River, Wilmington, Mass., USA). Mice were 10-12 weeks of age and weighed 23-25 grams. The health of the mice was assessed daily by observation and analysis of blood samples taken from sentinel animals on shared shelf racks. All animals were allowed to acclimate and recover from shipping-related stress for one week. Autoclaved water and irradiated food (5058-ms Pico Lab mouse chow, Purina Mills, Richmond, Ind., USA) were provided ad libitum, and the animals were kept in a 12 hour light and dark cycle. Cages, bedding and water bottles were autoclaved before use and changed weekly. All animal experiments were conducted in accordance with the Guide for the Care and Use of Laboratory Animals, local regulations, and protocols approved by the Roche Animal Care and Use Committee in our AAALAC accredited facility.
(§3) LOX-IMVI cells (aka LOX, National Cancer Institute—Bethesda, Md.) were grown in RPMI-1640 medium supplemented with 10% Fetal Bovine Serum (FBS) and 1% of […] L-glutamine, scaled up, harvested, and prepared so that each mouse received 2×10^6 cells/0.2 ml calcium and magnesium free phosphate-buffered saline (PBS). Cells were implanted in the subcutaneous right flank of each mouse.
(§4) Mice implanted with human xenografts were randomized into eight groups of 10 mice each according to tumor volume so that all groups had similar starting mean tumor volumes. The approximate starting mean tumor volume for this study was 130 mm^3.
(§5) Treatment began on day 5 post-cell implant and ended at day 18 post-cell implant. Four groups of mice developed in example 3 were used. Each group was subjected to a different therapy as follows: • (1) mice receiving Compound I vehicle bid po and peginterferon alfa-2a vehicle 1×/wk sc; • (2) mice receiving Compound I at 75 mg/kg bid bid po; • (3) mice receiving peginterferon alfa-2a at 900 μg 1×/wk sc; and • (4) mice receiving Compound I at 75 mg/kg bid bid po and peginterferon alfa-2a at 900 μg 1×/wk sc.
(§6) The Compound I suspension and its corresponding vehicle were dosed using a sterile 1 cc syringe and 18-gauge gavage needle (0.2 ml/animal) twice daily. The peginterferon alfa-2a solution and its corresponding vehicle were dosed using a sterile 1 cc syringe and 26-gauge needle (0.2 ml/animal) once weekly on days 5 and 12 post-cell implant for a total of two injections.
For survival assessment, the percent of increased life space (ILS) was calculated as: 100×[(median survival day of treated group−median survival day of control group)/median survival day of control group]. Median survival was determined utilizing Kaplan Meier survival analysis. Survival in treated groups was statistically compared with the vehicle group and survival comparisons were done between groups using the log-rank test (Graph Pad Prism, La Jolla, Calif., USA). Differences between groups were considered significant when the probability value (p) was ≦0.05.
Treatment began on day 6 post-cell implant and ended at day 19 post-cell implant. Four groups of mice developed in example 3 were used. The treatment groups were as follows: • (1) mice receiving Compound I vehicle bid po and peginterferon alfa-2a vehicle 1×/wk sc; • (2) mice receiving Compound I at 25 mg/kg bid po; • (3) mice receiving peginterferon alfa-2a at 450 μg 1×/wk sc; and • (4) mice receiving Compound I at 25 mg/kg bid and peginterferon alfa-2a at 450 μg 1×/wk.
as §6, with “6” for “5”, “13” for “12”

[2] = test system: human LOX-IMVI melanoma cell xenografts; experiment: Tumor growth inhibition in mice with human LOX-IMVI melanoma xenografts; type: in vivo; details: monotherapy; for % Inhibition end of study Day: 19 / % T/C end of study Day: 19 / Average % Regression per Group / Mean Tumor Volume End Study DAY: 19 / % Inhibition end of study Day: 18 / % T/C end of study Day: 18 / Mean Tumor Volume End Study DAY: 18 / % Tumor Growth Inhibition: 10 mice; for Complete Regression / Partial Regression: animals out of 10 per group
Experimental: as §1, §2, §3, §4, §5, §6
Tumor measurements were taken once or twice per week. All animals were individually followed throughout the experiment.
Efficacy data was graphically represented as the mean tumor volume±standard error of the mean (SEM). In addition, tumor volumes of treated groups were presented as percentages of tumor volumes of the control groups (% T/C), using the formula: 100×((T−T0)/(C−C0)), where T represented mean tumor volume of a treated group on a specific day during the experiment, T0 represented mean tumor volume of the […] on the first day of treatment; C represented mean tumor volume of a control group on the specific day during the experiment, and Co represented mean tumor volume of the […] on the first day of treatment.
Tumor volume (in cubic millimeters) was calculated using the ellipsoid formula: (D×(d^2))/2, where “D” represents the large diameter of the tumor and “d” represents the small diameter.
Also, tumor regression and/or percent change in tumor volume was calculated using the formula: ((T−T0)/T0)×100, where ‘T’ represents mean tumor volume of the treated group at a particular day, and ‘T0’ represents mean tumor volume of the same treated group at initiation of treatment.
Statistical analysis was determined by the rank sum test and One Way Anova and a post-hoc Bonferroni t-test (SigmaStat, version 2.0, Jandel Scientific, San Francisco, Calif., USA). […]

[3] = type: in vivo; details: monotherapy, 10 mice
Experimental: as §2, with “Autoclaved water and irradiated food (5058-ms Pico Lab mouse chow, Purina Mills, Richmond, Ind., USA) were provided ad libitum, and the animals were kept in a 12 hour light and dark cycle.” left out
Treatment began on day 5 post-cell implant and ended at day 18 post-cell implant.
The peginterferon alfa-2a solution and its corresponding vehicle were dosed using a sterile 1 cc syringe and 26-gauge needle (0.2 ml/animal) once weekly on days 5 and 12 post-cell implant for a total of two injections.
Weight loss was graphically represented as percent change in mean group body weight, using the formula: ((W−W0)/W0)×100, where ‘W’ represents mean body weight of the treated group at a particular day, and ‘W0’ represents mean body weight of the same treated group at initiation of treatment.
Treatment began on day 6 post-cell implant and ended at day 19 post-cell implant.
The peginterferon alfa-2a solution and its corresponding vehicle were dosed using a sterile 1 cc syringe and 26-gauge needle (0.2 ml/animal) once weekly on days 6 and 13 post-cell implant for a total of two injections.

[4] = Compound I 25 mg/kg bid po, days 6-19 post-cell implant
[5] = Compound I 75 mg/kg bid po, days 5-18 post-cell implant
[6] = peginterferon alfa-2a 450 μg 1×/wk sc (days 6 and 13)
[7] = peginterferon alfa-2a 900 μg 1×/wk sc (days 5 and 12)

For CCCS(=O)(=O)Nc1ccc(F)c(C(=O)c2c[nH]c3ncc(-c4ccc(Cl)cc4)cc23)c1F [Compound I, Propane-1-sulfonic acid{3-[5-(4-chloro-phenyl)-1H-pyrrolo[2,3-b]pyridine-3-carbonyl]-2,4-difluoro-phenyl}-amide], the “50% Treatment Days (median survival day of treated group)” value (shortened to “50% Treatment Days”) [1, 4] was 59 days, the “% ILS (increased life span)” value [1, 4] was 321% and the “50% Treatment Days” value [1, 5] was 504 days. For the same molecule, the “% ILS (increased life span)” value [1, 5] was 3500%, the “% Inhibition end of study Day: 19” value [2, 4] was “regression” and the “% T/C end of study Day: 19” value [2, 4] was −5%. For the same molecule, the “Average % Regression per Group” value [2, 4] was 100%, the “Mean Tumor Volume End Study DAY: 19” value [2, 4] was 0.00 mm^3 and the “Complete Regression” value [2, 4] was 10. The “Partial Regression” value [2, 4] was 0, the “% Inhibition end of study Day: 18” value [2, 5] was “regression” and the “% T/C end of study Day: 18” value [2, 5] was −4%. The “Average % Regression per Group” value [2, 5] was 100%, the “Mean Tumor Volume End Study DAY: 18” value [2, 5] was 0.00 mm^3 and the “Complete Regression” value [2, 5] was 10. The “Partial Regression” value [2, 5] was 0, the “# animals ≧ 20% BWL” value [3, 4] was 0 and the “% Change in Body Weight at end of Study Day 19” value [3, 4] was 1.3%. The “Max % Weight Gain” value [3, 4] was 1.3%, the “Max % Weight Loss” value [3, 4] was −1.0% and the Mortality [3, 4] was 0. The “# animals ≧ 20% BWL” value [3, 5] was 0, the “% Change in Body Weight at end of Study Day 18” value [3, 5] was −7.0% and the “Max % Weight Gain” value [3, 5] was −3.6%. The “Max % Weight Loss” value [3, 5] was −7.0% and the Mortality [3, 5] was 0.
With Peginterferon alfa-2a the “50% Treatment Days” value [1, 6] was 30 days, the “% ILS (increased life span)” value [1, 6] was 114% and the “50% Treatment Days” value [1, 7] was 34 days. The “% ILS (increased life span)” value [1, 7] was 143%, the “% Inhibition end of study Day: 19” value [2, 6] was “regression” and the “% T/C end of study Day: 19” value [2, 6] was 0%. For the same molecule, the “% Tumor Growth Inhibition” value [2, 6] was over 100%, the “Average % Regression per Group” value [2, 6] was 6% and the “Mean Tumor Volume End Study DAY: 19” value [2, 6] was 122.93 mm^3. The “Complete Regression” value [2, 6] was 1, the “Partial Regression” value [2, 6] was 6 and the “% Inhibition end of study Day: 18” value [2, 7] was 98%. The “% T/C end of study Day: 18” value [2, 7] was 2%, the “% Tumor Growth Inhibition” value [2, 7] was 98% and the “Mean Tumor Volume End Study DAY: 18” value [2, 7] was 193.98 mm^3. The “Complete Regression” value [2, 7] was 3, the “Partial Regression” value [2, 7] was 2 and the “# animals ≧ 20% BWL” value [3, 6] was 0. For the same molecule, the “% Change in Body Weight at end of Study Day 19” value [3, 6] was 8.1%, the “Max % Weight Gain” value [3, 6] was 8.1% and the “Max % Weight Loss” value [3, 6] was 3.7%. The Mortality [3, 6] was 0, the “# animals ≧ 20% BWL” value [3, 7] was 0 and the “% Change in Body Weight at end of Study Day 18” value [3, 7] was 2.7%. The “Max % Weight Gain” value [3, 7] was 2.7%, the “Max % Weight Loss” value [3, 7] was 0.7% and the Mortality [3, 7] was 0.
